Reference: patent US20240358692A1, “TREATMENT OF SCLERODERMA” (Aisa Pharma, Inc., priority 2023, published 2024)

How the values were obtained:
[1] = tested on: participants with SSc-RP; test: Frequency of weekly RP attacks (all attacks; primary endpoint), patient diary; assay type: in vivo, human; conditions: for Weekly RP Attacks (All Attacks) Change from Baseline, Mean / Weekly RP Attacks (All Attacks) Change from Baseline, Median / Weekly RP Attacks (All Attacks) Percent Change from Baseline, Mean / Weekly RP Attacks (All Attacks) Percent Change from Baseline, Median / Weekly RP Attacks (All Attacks), Mean / Weekly RP Attacks (All Attacks), Median: ITT Part A; for reduction in weekly frequency of attacks: typical Raynaud attacks
Source text: Percent change from baseline evaluation for frequency of weekly RP attacks were or will be used as the primary efficacy variable. The sponsor-developed participant-informed diary will be used to record data. Frequency of weekly RP attacks is defined as the total number of RP attacks divided by the number of days with available diary data within the last 7 days of each dosing period then multiplied by 7. Total number of RP attacks during the last 7 days of screening period divided by the number of days with available data then multiplied by 7 will be used as baseline for the analysis of all periods. The variable will be calculated as follows: […]
Percent change from baseline evaluation for frequency of weekly RP attacks was and will be the primary efficacy endpoint. Frequency of weekly RP attacks is defined as the total number of RP attacks divided by the number of days with available diary data within the last 7 days of each dosing period then multiplied by 7. Total number of RP attacks during the last 7 days of screening period divided by the number of days with available data then multiplied by 7 will be used as baseline for the analysis of all periods.

[2] = tested on: participants with SSc-RP; test: Summary of data: dose response / overall response (Table S); assay type: in vivo, human; conditions: 20 mg dose group
[3] = Cilnidipine 10 mg, Baseline RCS stratum 1 (upper half of table)
[4] = Cilnidipine 10 mg, Excluding Outliers, Baseline RCS stratum 1 (upper half of table)
[5] = Cilnidipine 20 mg, Baseline RCS stratum 1 (upper half of table)
[6] = Cilnidipine 20 mg, Excluding Outliers, Baseline RCS stratum 1 (upper half of table)
[7] = Pooled Cilnidipine 10 mg and Cilnidipine 10 mg + Tadalafil 5 mg, Baseline RCS stratum 2 (lower half of table)
[8] = Pooled Cilnidipine 10 mg and Cilnidipine 10 mg + Tadalafil 5 mg, Excluding Outliers, Baseline RCS stratum 1 (upper half of table)
[9] = Pooled Cilnidipine 10 mg and Cilnidipine 10 mg + Tadalafil 5 mg, Excluding Outliers, Baseline RCS stratum 2 (lower half of table)
[10] = Pooled Cilnidipine 10 mg and Cilnidipine 10 mg + Tadalafil 5 mg, n=3, excluding outliers, last 7 days of dosing
[11] = Pooled Cilnidipine 10 mg and Cilnidipine 10 mg + Tadalafil 5 mg, n=3, last 7 days of dosing
[12] = Pooled Cilnidipine 20 mg and Cilnidipine 20 mg + Tadalafil 5 mg, Baseline RCS stratum 1 (upper half of table)
[13] = Pooled Cilnidipine 20 mg and Cilnidipine 20 mg + Tadalafil 5 mg, Excluding Outliers, Baseline RCS stratum 1 (upper half of table)
[14] = Pooled Cilnidipine 20 mg and Cilnidipine 20 mg + Tadalafil 5 mg, Excluding Outliers, Baseline RCS stratum 2 (lower half of table)
[15] = Pooled Cilnidipine 20 mg and Cilnidipine 20 mg + Tadalafil 5 mg, n=4, excluding outliers, last 7 days of dosing
[16] = Pooled Cilnidipine 20 mg and Cilnidipine 20 mg + Tadalafil 5 mg, n=4, last 7 days of dosing
[17] = Pooled Cilnidipine arms, n=3, excluding outliers, last 7 days of dosing
[18] = Pooled Cilnidipine arms, n=3, last 7 days of dosing
[19] = Pooled Cilnidipine, Baseline RCS stratum 1 (upper half of table)
[20] = Pooled Cilnidipine, Excluding Outliers, Baseline RCS stratum 1 (upper half of table)
[21] = cilnidipine 10 mg daily, n=1, excluding outliers, last 7 days of dosing
[22] = cilnidipine 10 mg daily, n=1, last 7 days of dosing
[23] = cilnidipine 20 mg daily, n=2, excluding outliers, last 7 days of dosing
[24] = cilnidipine 20 mg daily, n=2, last 7 days of dosing

Compound: COCCOC(=O)C1=C(C)NC(C)=C(C(=O)OC/C=C/c2ccccc2)C1c1cccc([N+](=O)[O-])c1 (centres unmarked) [Cilnidipine]
- Weekly RP Attacks (All Attacks) Change from Baseline, Mean [1, 3]: −9.00
- Weekly RP Attacks (All Attacks) Change from Baseline, Median [1, 3]: −9.00
- Weekly RP Attacks (All Attacks) Percent Change from Baseline, Mean [1, 3]: −28.13%
- Weekly RP Attacks (All Attacks) Percent Change from Baseline, Median [1, 3]: −28.13%
- Weekly RP Attacks (All Attacks), Mean [1, 3]: 23.00
- Weekly RP Attacks (All Attacks), Median [1, 3]: 23.00
- Weekly RP Attacks (All Attacks) Change from Baseline, Mean [1, 4]: −9.00
- Weekly RP Attacks (All Attacks) Change from Baseline, Median [1, 4]: −9.00
- Weekly RP Attacks (All Attacks) Percent Change from Baseline, Mean [1, 4]: −28.13%
- Weekly RP Attacks (All Attacks) Percent Change from Baseline, Median [1, 4]: −28.13%
- Weekly RP Attacks (All Attacks), Mean [1, 4]: 23.00
- Weekly RP Attacks (All Attacks), Median [1, 4]: 23.00
- Weekly attack frequency (change) ([1]; Cilnidipine 20 mg (n = 3)): −43%
- Weekly RP Attacks (All Attacks) Change from Baseline, Mean [1, 5]: −6.67
- Weekly RP Attacks (All Attacks) Change from Baseline, Median [1, 5]: −6.67
- Weekly RP Attacks (All Attacks) Percent Change from Baseline, Mean [1, 5]: −45.71%
- Weekly RP Attacks (All Attacks) Percent Change from Baseline, Median [1, 5]: −45.71%
- Weekly RP Attacks (All Attacks), Mean [1, 5]: 8.00
- Weekly RP Attacks (All Attacks), Median [1, 5]: 8.00
- Weekly RP Attacks (All Attacks) Change from Baseline, Mean [1, 6]: −6.67
- Weekly RP Attacks (All Attacks) Change from Baseline, Median [1, 6]: −6.67
- Weekly RP Attacks (All Attacks) Percent Change from Baseline, Mean [1, 6]: −45.71%
- Weekly RP Attacks (All Attacks) Percent Change from Baseline, Median [1, 6]: −45.71%
- Weekly RP Attacks (All Attacks), Mean [1, 6]: 8.00
- Weekly RP Attacks (All Attacks), Median [1, 6]: 8.00
- Weekly RP Attacks (All Attacks) Change from Baseline, Median [1, 7]: −5.00
- Weekly RP Attacks (All Attacks), Median [1, 7]: 6.00
- Weekly RP Attacks (All Attacks) Change from Baseline, Mean [1, 8]: −6.50
- Weekly RP Attacks (All Attacks) Change from Baseline, Median [1, 8]: −6.50
- Weekly RP Attacks (All Attacks) Percent Change from Baseline, Mean [1, 8]: −36.28%
- Weekly RP Attacks (All Attacks) Percent Change from Baseline, Median [1, 8]: −36.28%
- Weekly RP Attacks (All Attacks), Mean [1, 8]: 14.00
- Weekly RP Attacks (All Attacks), Median [1, 8]: 14.00
- Weekly RP Attacks (All Attacks) Change from Baseline, Mean [1, 9]: −5.00
- Weekly RP Attacks (All Attacks) Change from Baseline, Median [1, 9]: −5.00
- Weekly RP Attacks (All Attacks) Percent Change from Baseline, Mean [1, 9]: −45.45%
- Weekly RP Attacks (All Attacks) Percent Change from Baseline, Median [1, 9]: −45.45%
- Weekly RP Attacks (All Attacks), Mean [1, 9]: 6.00
- Weekly RP Attacks (All Attacks), Median [1, 9]: 6.00
- Weekly RP Attacks (All Attacks) Change from Baseline, Mean [1, 10]: −6.00
- Weekly RP Attacks (All Attacks) Change from Baseline, Median [1, 10]: −5.00
- Weekly RP Attacks (All Attacks) Percent Change from Baseline, Mean [1, 10]: −39.34%
- Weekly RP Attacks (All Attacks) Percent Change from Baseline, Median [1, 10]: −44.44%
- Weekly RP Attacks (All Attacks), Mean [1, 10]: 11.33
- Weekly RP Attacks (All Attacks), Median [1, 10]: 6.00
- Weekly RP Attacks (All Attacks) Change from Baseline, Mean [1, 11]: −6.00
- Weekly RP Attacks (All Attacks) Change from Baseline, Median [1, 11]: −5.00
- Weekly RP Attacks (All Attacks) Percent Change from Baseline, Mean [1, 11]: −39.34%
- Weekly RP Attacks (All Attacks) Percent Change from Baseline, Median [1, 11]: −44.44%
- Weekly RP Attacks (All Attacks), Mean [1, 11]: 11.33
- Weekly RP Attacks (All Attacks), Median [1, 11]: 6.00
- Weekly RP Attacks (All Attacks) Percent Change from Baseline, Median [1, 12]: −45.00%
- Weekly RP Attacks (All Attacks), Median [1, 12]: 11.00
- Weekly RP Attacks (All Attacks), Median ([1]; Pooled Cilnidipine 20 mg and Cilnidipine 20 mg + Tadalafil 5 mg, Baseline RCS stratum 2 (lower half of table)): 11.00
- Weekly RP Attacks (All Attacks) Change from Baseline, Mean [1, 13]: −5.78
- Weekly RP Attacks (All Attacks) Percent Change from Baseline, Mean [1, 13]: −37.49%
- Weekly RP Attacks (All Attacks) Percent Change from Baseline, Median [1, 13]: −45.00%
- Weekly RP Attacks (All Attacks), Mean [1, 13]: 10.33
- Weekly RP Attacks (All Attacks), Median [1, 13]: 11.00
- Weekly RP Attacks (All Attacks) Change from Baseline, Mean [1, 14]: −1.83
- Weekly RP Attacks (All Attacks) Change from Baseline, Median [1, 14]: −1.83
- Weekly RP Attacks (All Attacks) Percent Change from Baseline, Mean [1, 14]: −14.29%
- Weekly RP Attacks (All Attacks) Percent Change from Baseline, Median [1, 14]: −14.29%
- Weekly RP Attacks (All Attacks), Mean [1, 14]: 11.00
- Weekly RP Attacks (All Attacks), Median [1, 14]: 11.00
- Weekly RP Attacks (All Attacks) Change from Baseline, Mean [1, 15]: −4.79
- Weekly RP Attacks (All Attacks) Change from Baseline, Median [1, 15]: −4.17
- Weekly RP Attacks (All Attacks) Percent Change from Baseline, Mean [1, 15]: −31.69%
- Weekly RP Attacks (All Attacks) Percent Change from Baseline, Median [1, 15]: −33.03%
- Weekly RP Attacks (All Attacks), Mean [1, 15]: 10.50
- Weekly RP Attacks (All Attacks), Median [1, 15]: 11.00
- Weekly RP Attacks (All Attacks) Change from Baseline, Mean [1, 16]: −4.79
- Weekly RP Attacks (All Attacks) Change from Baseline, Median [1, 16]: −4.17
- Weekly RP Attacks (All Attacks) Percent Change from Baseline, Mean [1, 16]: −31.69%
- Weekly RP Attacks (All Attacks) Percent Change from Baseline, Median [1, 16]: −33.03%
- Weekly RP Attacks (All Attacks), Mean [1, 16]: 10.50
- Weekly RP Attacks (All Attacks), Median [1, 16]: 11.00
- Weekly attack frequency (change) ([1]; Pooled Cilnidipine (n = 7)): −41%
- Weekly RP Attacks (All Attacks) Change from Baseline, Mean [1, 17]: −7.44
- Weekly RP Attacks (All Attacks) Change from Baseline, Median [1, 17]: −9.00
- Weekly RP Attacks (All Attacks) Percent Change from Baseline, Mean [1, 17]: −39.85%
- Weekly RP Attacks (All Attacks) Percent Change from Baseline, Median [1, 17]: −45.00%
- Weekly RP Attacks (All Attacks), Mean [1, 17]: 13.00
- Weekly RP Attacks (All Attacks), Median [1, 17]: 11.00
- Weekly RP Attacks (All Attacks) Change from Baseline, Median [1, 18]: −9.00
- Weekly RP Attacks (All Attacks) Percent Change from Baseline, Median [1, 18]: −45.00%
- Weekly RP Attacks (All Attacks), Mean [1, 18]: 13.00
- Weekly RP Attacks (All Attacks), Median [1, 18]: 11.00
- Weekly RP Attacks (All Attacks) Change from Baseline, Mean [1, 19]: −7.44
- Weekly RP Attacks (All Attacks) Change from Baseline, Median [1, 19]: −9.00
- Weekly RP Attacks (All Attacks) Percent Change from Baseline, Mean [1, 19]: −39.85%
- Weekly RP Attacks (All Attacks) Percent Change from Baseline, Median [1, 19]: −45.00%
- Weekly RP Attacks (All Attacks), Mean [1, 19]: 13.00
- Weekly RP Attacks (All Attacks), Median [1, 19]: 11.00
- Weekly RP Attacks (All Attacks) Change from Baseline, Mean [1, 20]: −7.44
- Weekly RP Attacks (All Attacks) Change from Baseline, Median [1, 20]: −9.00
- Weekly RP Attacks (All Attacks) Percent Change from Baseline, Mean [1, 20]: −39.85%
- Weekly RP Attacks (All Attacks) Percent Change from Baseline, Median [1, 20]: −45.00%
- Weekly RP Attacks (All Attacks), Mean [1, 20]: 13.00
- Weekly RP Attacks (All Attacks), Median [1, 20]: 11.00
- Weekly RP Attacks (All Attacks) Change from Baseline, Mean [1, 21]: −9.00
- Weekly RP Attacks (All Attacks) Change from Baseline, Median [1, 21]: −9.00
- Weekly RP Attacks (All Attacks), Mean [1, 21]: 23.00
- Weekly RP Attacks (All Attacks), Median [1, 21]: 23.00
- Weekly RP Attacks (All Attacks) Change from Baseline, Mean [1, 22]: −9.00
- Weekly RP Attacks (All Attacks) Change from Baseline, Median [1, 22]: −9.00
- Weekly RP Attacks (All Attacks), Mean [1, 22]: 23.00
- Weekly RP Attacks (All Attacks), Median [1, 22]: 23.00
- Weekly RP Attacks (All Attacks) Change from Baseline, Mean [1, 23]: −6.67
- Weekly RP Attacks (All Attacks) Change from Baseline, Median [1, 23]: −6.67
- Weekly RP Attacks (All Attacks) Percent Change from Baseline, Mean [1, 23]: −45.71%
- Weekly RP Attacks (All Attacks) Percent Change from Baseline, Median [1, 23]: −45.71%
- Weekly RP Attacks (All Attacks), Mean [1, 23]: 8.00
- Weekly RP Attacks (All Attacks), Median [1, 23]: 8.00
- Weekly RP Attacks (All Attacks), Mean [1, 24]: 8.00
- Weekly RP Attacks (All Attacks), Median [1, 24]: 8.00
- reduction in weekly frequency of attacks ([1]; cilnidipine 10 mg (dose response, n=3)): 28%
- reduction in weekly frequency of attacks ([1]; cilnidipine 20 mg (dose response, n=3)): 46%
- Efficacy seen: overall response [2]: shows best overall
